Data reported in US7045532B2 (Millennium Pharmaceuticals, Inc., priority 1999, dated 2006).
Read-outs that look alike come from different tables or passages of the source.

Assays:
ACE (Sigma, A2580) = target: T1, ACE (Sigma, A2580) (Sus scrofa, UniProt F1RRW5); test: ACE enzymatic activity assay; assay type: biochemical, porcine; conditions: Ki class, compounds tested in 5% DMSO
T1 construct: ACE from porcine kidney; purchased Sigma A2580; host or cells: porcine kidney
T1 sequence (F1RRW5 34-1309): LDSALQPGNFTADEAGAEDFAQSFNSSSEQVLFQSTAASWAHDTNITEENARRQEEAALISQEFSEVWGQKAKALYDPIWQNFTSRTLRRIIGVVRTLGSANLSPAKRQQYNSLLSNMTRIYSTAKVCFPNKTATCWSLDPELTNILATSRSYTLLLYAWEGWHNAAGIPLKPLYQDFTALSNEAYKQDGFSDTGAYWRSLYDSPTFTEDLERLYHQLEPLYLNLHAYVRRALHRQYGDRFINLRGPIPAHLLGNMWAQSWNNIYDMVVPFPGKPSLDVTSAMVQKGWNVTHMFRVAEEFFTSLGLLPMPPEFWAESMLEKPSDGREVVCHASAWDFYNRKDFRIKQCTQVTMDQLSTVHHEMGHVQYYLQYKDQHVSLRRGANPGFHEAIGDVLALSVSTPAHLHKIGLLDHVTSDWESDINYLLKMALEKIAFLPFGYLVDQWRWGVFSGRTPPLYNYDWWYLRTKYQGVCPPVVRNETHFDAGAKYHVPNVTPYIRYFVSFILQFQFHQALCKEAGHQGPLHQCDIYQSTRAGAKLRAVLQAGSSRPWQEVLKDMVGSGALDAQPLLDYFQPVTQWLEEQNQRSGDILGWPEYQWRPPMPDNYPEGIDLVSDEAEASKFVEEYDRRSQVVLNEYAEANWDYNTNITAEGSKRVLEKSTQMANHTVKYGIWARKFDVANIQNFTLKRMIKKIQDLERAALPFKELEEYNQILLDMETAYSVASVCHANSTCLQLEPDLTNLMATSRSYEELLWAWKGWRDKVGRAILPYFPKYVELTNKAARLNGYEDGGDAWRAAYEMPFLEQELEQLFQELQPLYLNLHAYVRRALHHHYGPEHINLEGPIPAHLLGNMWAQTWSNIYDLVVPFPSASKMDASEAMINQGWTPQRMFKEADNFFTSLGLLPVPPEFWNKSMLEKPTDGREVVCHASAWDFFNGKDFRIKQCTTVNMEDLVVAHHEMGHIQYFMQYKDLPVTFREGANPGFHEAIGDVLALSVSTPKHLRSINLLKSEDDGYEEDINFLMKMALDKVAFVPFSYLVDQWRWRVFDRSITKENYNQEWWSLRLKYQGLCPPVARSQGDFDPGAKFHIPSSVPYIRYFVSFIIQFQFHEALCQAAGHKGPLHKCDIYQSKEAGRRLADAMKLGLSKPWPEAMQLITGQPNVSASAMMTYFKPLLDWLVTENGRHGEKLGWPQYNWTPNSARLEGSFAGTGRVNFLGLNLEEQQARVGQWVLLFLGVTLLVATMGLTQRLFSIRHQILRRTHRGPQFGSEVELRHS
Method in brief: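 Fluorogenic substrate cleavage by 1 nM ACE, read at 320/405 nm after EDTA stop at ~30 min. Reactions at 25 °C, pH 7.5, in HEPES/NaCl/Brij-35 buffer; compounds tested at 12 concentrations in 5% DMSO.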

ACE-2 [1] = target: ACE-2 (Rattus norvegicus, UniProt Q5EGZ1); test: ACE-2 Competitive Substrate Assay, rat ACE-2; assay type: biochemical; conditions: Ki class, compounds tested in 5% DMSO
Sequence of ACE-2 (Rattus norvegicus, UniProt Q5EGZ1) (Q5EGZ1 18-805): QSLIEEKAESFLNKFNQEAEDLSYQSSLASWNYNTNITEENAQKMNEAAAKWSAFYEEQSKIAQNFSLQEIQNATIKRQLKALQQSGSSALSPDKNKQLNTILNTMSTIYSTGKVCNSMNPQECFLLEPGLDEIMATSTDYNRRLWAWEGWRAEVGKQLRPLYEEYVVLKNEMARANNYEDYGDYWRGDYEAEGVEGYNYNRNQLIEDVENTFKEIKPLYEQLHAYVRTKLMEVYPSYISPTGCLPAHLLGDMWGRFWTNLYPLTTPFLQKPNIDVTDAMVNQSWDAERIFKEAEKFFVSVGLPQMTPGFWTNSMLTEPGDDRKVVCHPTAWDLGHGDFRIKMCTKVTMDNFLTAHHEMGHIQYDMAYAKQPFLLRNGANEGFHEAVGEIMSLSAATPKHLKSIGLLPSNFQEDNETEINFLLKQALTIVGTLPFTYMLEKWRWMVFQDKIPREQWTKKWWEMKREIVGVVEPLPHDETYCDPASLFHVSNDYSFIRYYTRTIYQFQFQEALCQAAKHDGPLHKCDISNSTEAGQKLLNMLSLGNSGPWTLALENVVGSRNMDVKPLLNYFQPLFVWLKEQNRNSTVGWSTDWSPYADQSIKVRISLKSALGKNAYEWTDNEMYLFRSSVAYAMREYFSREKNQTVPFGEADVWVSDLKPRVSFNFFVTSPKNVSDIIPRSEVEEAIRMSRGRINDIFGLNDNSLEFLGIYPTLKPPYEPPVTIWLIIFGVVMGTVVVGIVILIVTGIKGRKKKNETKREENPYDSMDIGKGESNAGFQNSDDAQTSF

ACE-2 [2] = target: T2, ACE-2 (Homo sapiens, UniProt Q9BYF1); test: ACE-2 Competitive Substrate Assay (ACS Assay); assay type: biochemical
T2 construct: a stop codon inserted after the serine immediately preceding the transmembrane domain; made in house; host or cells: CHO K1 cells (transient transfection, purified from conditioned medium)
T2 sequence (Q9BYF1 18-740 limits assumed): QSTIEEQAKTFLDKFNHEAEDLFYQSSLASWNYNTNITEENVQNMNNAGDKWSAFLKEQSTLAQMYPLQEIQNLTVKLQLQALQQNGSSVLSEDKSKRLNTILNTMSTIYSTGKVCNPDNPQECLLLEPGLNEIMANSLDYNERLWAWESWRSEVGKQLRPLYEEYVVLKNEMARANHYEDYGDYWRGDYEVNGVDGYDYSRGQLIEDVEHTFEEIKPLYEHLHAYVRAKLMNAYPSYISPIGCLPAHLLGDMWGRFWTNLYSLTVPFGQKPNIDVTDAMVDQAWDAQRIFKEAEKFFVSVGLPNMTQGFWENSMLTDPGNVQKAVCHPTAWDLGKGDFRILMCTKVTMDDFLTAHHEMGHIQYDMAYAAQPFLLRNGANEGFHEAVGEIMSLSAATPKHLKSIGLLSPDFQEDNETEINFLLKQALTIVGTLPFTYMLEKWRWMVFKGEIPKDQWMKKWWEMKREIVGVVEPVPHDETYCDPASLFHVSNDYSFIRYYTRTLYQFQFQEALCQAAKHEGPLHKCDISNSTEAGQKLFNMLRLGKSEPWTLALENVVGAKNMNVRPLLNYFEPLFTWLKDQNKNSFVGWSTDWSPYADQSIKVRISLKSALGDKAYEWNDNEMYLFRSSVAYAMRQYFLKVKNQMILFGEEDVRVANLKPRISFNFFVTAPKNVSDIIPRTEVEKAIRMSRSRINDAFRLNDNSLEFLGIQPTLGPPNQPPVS

Carboxypeptidase A = target: T3, Carboxypeptidase A (Bos taurus, UniProt P00730); test: Carboxypeptidase A activity assay; assay type: biochemical; conditions: Ki class, compounds tested in 5% DMSO
T3 sequence (P00730 111-419): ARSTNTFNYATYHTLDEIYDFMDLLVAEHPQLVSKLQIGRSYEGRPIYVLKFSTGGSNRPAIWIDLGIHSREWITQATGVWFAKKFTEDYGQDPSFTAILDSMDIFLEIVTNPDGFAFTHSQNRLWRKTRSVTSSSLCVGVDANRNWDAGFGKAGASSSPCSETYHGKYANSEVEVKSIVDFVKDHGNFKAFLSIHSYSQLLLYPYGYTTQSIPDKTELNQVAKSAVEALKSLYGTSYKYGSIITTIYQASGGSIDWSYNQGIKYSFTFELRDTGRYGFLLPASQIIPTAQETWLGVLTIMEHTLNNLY
Method in brief: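 Ki obtained by correcting apparent Ki for substrate, Ki=Kiapp/(1+[S]/Km), from 12-concentration series. Enzyme activity read by absorbance at 328 nm with 5% DMSO present, EDTA stop.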

[3] = Ki class, compounds tested in 5% DMSO, 12 concentrations, read-out: Human ACE-2 Activity

SMILES | Ki (ACE (Sigma, A2580); 12 concentrations) [µM] | Ki (ACE-2 [1]; 12 concentrations) [µM] | Ki (ACE-2 [2]; [3]) [µM] | Ki (Carboxypeptidase A; 12 concentrations) [µM] | relative activity of the diastereomers EZ and FA (ACE-2 [2]; assay not given) | Ki (ACE (Sigma, A2580); 12 compound concentrations) [µM] | Ki (ACE-2 [1]; 12 compound concentrations) [µM] | Ki (ACE-2 [2]; Ki class, compounds tested in 5% DMSO, 12 compound concentrations, Ki=Kiapp/(1+[S]/Km), read-out: Human ACE-2 Activity) [µM] | Ki (ACE-2 [2]; Table 3, very good ACE-2 inhibiting compounds, species not given, read-out: ACE-2 Activity, Ki) [µM] | Ki (Carboxypeptidase A; 12 compound concentrations) [µM]
CC(C)CC(N[C@@H](Cc1c[nH]cn1)C(N)=O)C(=O)O (single isomer, unassigned) [EV, 2-[1-Carbamoyl-2-(1H-imidazol-4-yl)-ethylamino]4-methyl-pentanoic acid] | > 50 | > 0.5 | > 0.5 | > 50 | – | – | – | – | – | –
CC(C)CC(N[C@@H](Cc1cn(Cc2ccc(Cl)cc2)cn1)C(=O)O)C(=O)O (some centres unmarked) [EC, 2-{1-Carboxy-2-[1-(4-chloro-benzyl}-1H-imidazol-4-yl]-ethylamino)4-methyl-pentanoic acid] | 10 to 50 | > 0.5 | > 0.5 | < 10 | – | – | – | – | – | –
CCCCC(N[C@@H](Cc1cncn1Cc1ccccc1)C(=O)O)C(=O)O (single isomer, unassigned) [FY, 2-[2-(3H-Benzyl-3-imidazol-4-yl)-1-carboxy-ethylamino]-hexanoicacid] | > 50 | < 0.1 | > 0.5 | > 50 | – | – | – | – | – | –
O=C(O)C(Cc1ccccc1)N[C@@H](Cc1cncn1Cc1ccccc1)C(=O)O (single isomer, unassigned) [GF, 3-(3-Benzyl-3H-imidazol-4-yl)-2-(1-carboxy-2-phenyl-ethylamino)-propionic acid] | > 50 | 0.1 to 0.5 | > 0.5 | < 10 | – | – | – | – | – | –
CC(C)CC(N[C@H](CO)Cc1c[nH]cn1)C(=O)O (single isomer, unassigned) [FO, 2-[1-Hydroxymethyl-2-(1H-imidazol-4-yl)-ethylamino)4-methyl-pentanoic acid] | > 50 | > 0.5 | > 0.5 | > 50 | – | – | – | – | – | –
Cc1cc(C)cc(Cn2cncc2C[C@H](NC(CC(C)C)C(=O)O)C(=O)O)c1 (single isomer, unassigned) [HQ, 2-[1-Carboxy-2-[3-(3,5-dimethyl-benzyl)-3H-imidazol-4-yl]-ethylamino]4-methyl-pantanoic acid] | – | – | – | – | – | 10 to 50 | < 0.1 | < 0.1 | < 0.05 | 10 to 50
CC(C)C[C@@H](C(=O)O)N(C(=O)c1ccccc1)C(CCc1ccccc1)C(=O)O (stereo in doubt) [AV, 2-[Benzoyl-(1-carboxy-3-phenyl-propyl)-amino]-4-methyl-pentanoic acid] | > 50 | > 0.5 | > 0.5 | 10 to 50 | – | – | – | – | – | –
CC(C)CC(N[C@@H](Cc1cncn1Cc1ccc(C(F)(F)F)cc1)C(=O)O)C(=O)O (some centres unmarked) [GJ, 2-[1-Carboxy-2-[3-(4-trifluoromethyl-benzyl)-3H-imidazol-4-yl]-ethylamino]4-methyl-pentanoic acid] | 10 to 50 | > 0.5 | > 0.5 | 10 to 50 | – | – | – | – | – | –
CCC(C)C(N[C@H](Cc1c[nH]cn1)C(=O)O)C(=O)O (stereo in doubt) [BE, 2-[1-Carboxy-2-(1H-imidazol-4-yl)-ethylamino]-3-methyl-pentanoic acid] | 10 to 50 | > 0.5 | > 0.5 | > 50 | – | – | – | – | – | –
COc1ccc(CCNC(=O)[C@H](Cc2cnc[nH]2)NC(CC(C)C)C(=O)O)cc1 (single isomer, unassigned) [FK, 2-{2-(3H-Imidazol-4-yl)-1-[2-(4-methoxy-phenyl)-ethylcarbamoyl]-ethylamino}-4-methyl-pentanoic acid] | > 50 | > 0.5 | > 0.5 | > 50 | – | – | – | – | – | –

The next lines start with the values.

Ki (ACE (Sigma, A2580); 12 concentrations) [µM] | Ki (ACE-2 [1]; 12 concentrations) [µM] | Ki (ACE-2 [2]; [3]) [µM] | Ki (Carboxypeptidase A; 12 concentrations) [µM] | relative activity of the diastereomers EZ and FA (ACE-2 [2]; assay not given) | Ki (ACE (Sigma, A2580); 12 compound concentrations) [µM] | Ki (ACE-2 [1]; 12 compound concentrations) [µM] | Ki (ACE-2 [2]; Ki class, compounds tested in 5% DMSO, 12 compound concentrations, Ki=Kiapp/(1+[S]/Km), read-out: Human ACE-2 Activity) [µM] | Ki (ACE-2 [2]; Table 3, very good ACE-2 inhibiting compounds, species not given, read-out: ACE-2 Activity, Ki) [µM] | Ki (Carboxypeptidase A; 12 compound concentrations) [µM] | SMILES
> 50 | > 0.5 | > 0.5 | > 50 | – | – | – | – | – | – | CC(C)CC(N[C@@H](Cc1cncn1COCc1ccccc1)C(=O)O)C(=O)O (single isomer, unassigned) [EO, 2-[2-(3-Benzyloxymethyl-3H-imidazol-4-yl)-1-carboxy-ethylamino]-4-methyl-pentanoic acid]
> 50 | > 0.5 | > 0.5 | > 50 | – | – | – | – | – | – | CC(C)C[C@H](N[C@@H](C(=O)O)c1ccccc1)C(=O)O [R, 2-[(Carboxy-phenyl-methyl)-amino]-4-methyl-pentanoic acid]
> 50 | 0.1 to 0.5 | > 0.5 | > 50 | – | – | – | – | – | – | CC(C)CC(N[C@@H](Cc1c[nH]cn1)C(=O)O)C(=O)O (single isomer, unassigned) [BK, 2-[1-Carboxy-2-(1H-imidazol-4-yl)-ethylamino]4-methyl-pentanoic acid]
> 50 | > 0.5 | > 0.5 | > 50 | – | – | – | – | – | – | CC(C)CC(N[C@@H](Cc1cnc[nH]1)C(=O)NCCc1ccccc1)C(=O)O (single isomer, unassigned) [FW, 2-[2-(3H-Imidazol-4-yl)-1-phenethylcarbamoyl-ethylamino]-4-methyl-pentanoic acid]
> 50 | < 0.1 | > 0.5 | > 50 | more active diastereomer | – | – | – | – | – | CC(C)CC(N[C@@H](Cc1cncn1Cc1ccccc1)C(=O)O)C(=O)O (single isomer, unassigned) [EZ, 2-[2-(3-Benzyl-3H-imidazol-4-yl)-1-carboxy-ethylamino]-4-methyl-pentanoic acid]
> 50 | < 0.1 | < 0.1 | 10 to 50 | – | – | – | – | – | – | CC(C)CC(N[C@@H](Cc1cncn1Cc1cccc2ccccc12)C(=O)O)C(=O)O (single isomer, unassigned) [GK, 2-[1-Carboxy-2-(3-naphthalen-1-ylmethyl-3Himidazol-4-yl)-ethylamino]4-methyl-pentanoic acid]
> 50 | > 0.5 | > 0.5 | > 50 | – | – | – | – | – | – | CC(C)(C)C[C@H](N[C@@H](C(=O)O)c1ccccc1)C(=O)O [CJ, 2-[(Carboxy-phenyl-methyl)-amino]-4,4-dimethyl-pentanoic acid]
> 50 | > 0.5 | > 0.5 | > 50 | – | – | – | – | – | – | CC(C)CC(N[C@H](Cc1nc[nH]n1)C(=O)O)C(=O)O (some centres unmarked) [CE, 2-[1-Carboxy-2-(1H-[1,2,4]triazol-3-yl)-ethylamino]-4-methyl-pentanoic acid]
> 50 | > 0.5 | > 0.5 | > 50 | – | – | – | – | – | – | CC(C)C[C@@H](N[C@@H](C(=O)O)c1ccccc1)C(=O)O [BT, 2-[(Carboxy-phenyl-methyl)-amino]-4-methyl-pentanoic acid]
> 50 | > 0.5 | > 0.5 | > 50 | – | – | – | – | – | – | CC(C)CC(N[C@H](Cc1cn(Cc2ccccc2)cn1)C(=O)O)C(=O)O (stereo in doubt) [CW, 2-[2-(1-Benzyl-1H-imidazol-4-yl)-1-carboxy-ethylamino]-4-methyl-pentanoic acid]
> 50 | > 0.5 | > 0.5 | > 50 | – | – | – | – | – | – | CC(C)CC(N[C@H](CN(C)c1ccccc1)C(=O)O)C(=O)O (some centres unmarked) [FT, 2-[1-Carboxy-2-(methyl-phenyl-amino)-ethylamino]-4-methyl-pentanoic acid]
